From patent US9896412B2, “Reagents and method for conjugating biological molecules” (POLYTHERICS LIMITED, priority 2008, dated 2018)

Description: A pH 7.4 D2O solution was made by first freeze-drying a 50 mM sodium phosphate aqueous solution containing 150 mM NaCl and 20 mM EDTA at pH 7.4 and reconstituting to the same volume with deuterium oxide. Acetone was added as a standard to the buffer at 1.0 μl per 3 ml. Samples of the PEG reagents were dissolved at 1 μmol in 0.75 ml of the buffer and analysed after 4 h and after 25.5 h by 400 MHz NMR spectroscopy. The stability of the PEG maleimide samples was determined by comparing the integral at 6.86 ppm after normalising using the integral for the acetone standard at 2.17 ppm.

For “α-methoxy-ω-ethyl-maleinimide polyethylene glycol [PEG maleimide sample 2]”, the “% Degradation over 21.5 h at pH 7.4” value was 19%.
